Data taken from ChEMBL document CHEMBL3286227, “Guanidinium-based derivatives: searching for new kinase inhibitors” (Eur J Med Chem, 2014).
pIC50: −log10 of the molar value. The source made the active and inactive calls. No cut-off for these calls is given here.

Key:
[1] = biological target: Serine/threonine-protein kinase RAF and Dual specificity mitogen-activated protein kinase kinase 1 (Raf/MEK) (Homo sapiens) (UniProt P04049+Q02750); assay: Inhibition of RAF-1/MEK1 (unknown origin) assessed as at 10 uM after 5 mins by fluorescence assay relative to control; format: protein assay
HL-60 = assay: Cytotoxicity against human HL60 cells after 72 hrs by Alamar Blue assay; format: functional, cell-based; conditions: HL-60, 72 h
[2] = biological target: Glycogen synthase kinase-3 beta (Homo sapiens, UniProt P49841); assay: Inhibition of human recombinant GSK-3 beta after 30 mins by luminescence assay
[3] = biological target: Casein kinase I isoform delta (Homo sapiens, UniProt P48730); assay: Inhibition of human recombinant casein kinase-1 delta using casein as substrate after 60 mins by kinase-glo luminescence assay
[4] = biological target: Serine/threonine-protein kinase B-raf (Homo sapiens) (UniProt P15056); assay: Competitive binding to B-RAF kinase (unknown origin) at 100 nM to 100 uM after 60 to 120 mins by FRET analysis
[5] = biological target: MAP kinase p38 (Homo sapiens) (UniProt O15264+Q15759+Q16539+P53778); assay: Inhibition of P38 MAP kinase in human A431 cells using TNF-alpha as substrate at 10 uM incubated for 5 mins prior to substrate addition measured after 10 mins by fluorescence assay relative to control; format: cell-based; conditions: A-431
HUVEC = assay: Inhibition of VEGFR in HUVEC using […] as substrate at 10 uM incubated for 20 mins prior to substrate addition relative to control; format: cell-based; conditions: Homo sapiens
[6] = biological target: Mitogen-activated protein kinase; ERK1/ERK2 (Homo sapiens) (UniProt P27361+P28482); assay: Inhibition of ERK1/2 kinase in human A431 cells using EGF as substrate at 10 uM incubated for 5 mins prior to substrate addition measured after 10 mins by fluorescence assay relative to control; format: cell-based; conditions: A-431
Sequence of Mitogen-activated protein kinase; ERK1/ERK2 (Homo sapiens) (P27361 whole entry, looked up): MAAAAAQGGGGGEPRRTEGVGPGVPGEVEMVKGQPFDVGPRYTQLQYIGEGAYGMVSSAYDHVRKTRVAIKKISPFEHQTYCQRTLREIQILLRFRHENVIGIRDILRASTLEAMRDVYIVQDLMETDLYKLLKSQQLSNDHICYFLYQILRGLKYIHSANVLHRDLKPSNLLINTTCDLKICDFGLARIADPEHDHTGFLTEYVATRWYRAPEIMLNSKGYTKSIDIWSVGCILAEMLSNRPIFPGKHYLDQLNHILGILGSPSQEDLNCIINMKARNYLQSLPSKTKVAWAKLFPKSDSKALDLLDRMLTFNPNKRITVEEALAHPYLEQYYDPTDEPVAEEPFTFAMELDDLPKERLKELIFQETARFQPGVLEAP
Sequence of Mitogen-activated protein kinase; ERK1/ERK2 (Homo sapiens) (P28482 whole entry, looked up): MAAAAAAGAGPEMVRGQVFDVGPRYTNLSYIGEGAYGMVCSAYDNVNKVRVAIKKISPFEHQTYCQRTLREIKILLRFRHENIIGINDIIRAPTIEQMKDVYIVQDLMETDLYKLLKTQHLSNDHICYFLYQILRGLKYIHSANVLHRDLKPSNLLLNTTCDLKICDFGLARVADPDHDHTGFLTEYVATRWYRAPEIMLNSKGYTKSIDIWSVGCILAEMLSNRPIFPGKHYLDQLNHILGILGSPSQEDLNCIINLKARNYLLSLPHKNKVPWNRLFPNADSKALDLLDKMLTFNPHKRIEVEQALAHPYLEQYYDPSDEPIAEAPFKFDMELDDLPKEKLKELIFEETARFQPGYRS

Sequence of Casein kinase I isoform delta (P48730 whole entry, canonical isoform): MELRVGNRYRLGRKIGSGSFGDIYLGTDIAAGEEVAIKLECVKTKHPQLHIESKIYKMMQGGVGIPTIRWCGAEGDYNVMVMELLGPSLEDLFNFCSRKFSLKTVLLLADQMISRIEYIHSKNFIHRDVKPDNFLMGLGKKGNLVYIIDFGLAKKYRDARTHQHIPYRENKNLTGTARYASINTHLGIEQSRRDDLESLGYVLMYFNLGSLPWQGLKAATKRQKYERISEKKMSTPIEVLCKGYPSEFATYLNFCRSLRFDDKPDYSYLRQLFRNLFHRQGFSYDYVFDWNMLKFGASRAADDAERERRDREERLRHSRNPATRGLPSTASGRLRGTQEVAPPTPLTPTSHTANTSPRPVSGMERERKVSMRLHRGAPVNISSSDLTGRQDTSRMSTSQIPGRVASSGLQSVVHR
Sequence of Serine/threonine-protein kinase RAF and Dual specificity mitogen-activated protein kinase kinase 1 (Raf/MEK) (Homo sapiens) (P04049 whole entry, looked up): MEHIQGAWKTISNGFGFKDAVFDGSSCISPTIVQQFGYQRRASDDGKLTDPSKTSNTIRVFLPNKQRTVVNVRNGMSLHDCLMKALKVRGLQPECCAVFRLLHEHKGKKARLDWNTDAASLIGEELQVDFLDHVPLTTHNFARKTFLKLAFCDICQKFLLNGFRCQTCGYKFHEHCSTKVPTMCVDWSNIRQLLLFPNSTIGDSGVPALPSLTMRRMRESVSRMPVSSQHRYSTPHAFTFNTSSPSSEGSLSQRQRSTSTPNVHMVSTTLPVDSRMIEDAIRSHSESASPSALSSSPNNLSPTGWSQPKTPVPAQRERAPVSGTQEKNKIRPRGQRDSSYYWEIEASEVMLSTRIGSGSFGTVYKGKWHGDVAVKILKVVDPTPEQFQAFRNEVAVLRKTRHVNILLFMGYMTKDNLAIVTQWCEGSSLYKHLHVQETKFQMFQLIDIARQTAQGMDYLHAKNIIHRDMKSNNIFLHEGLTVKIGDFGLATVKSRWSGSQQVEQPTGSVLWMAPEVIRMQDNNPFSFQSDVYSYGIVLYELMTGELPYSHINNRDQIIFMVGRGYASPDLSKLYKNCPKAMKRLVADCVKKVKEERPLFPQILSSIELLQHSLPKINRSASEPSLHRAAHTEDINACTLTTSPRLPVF
Sequence of Serine/threonine-protein kinase RAF and Dual specificity mitogen-activated protein kinase kinase 1 (Raf/MEK) (Homo sapiens) (Q02750 whole entry, looked up): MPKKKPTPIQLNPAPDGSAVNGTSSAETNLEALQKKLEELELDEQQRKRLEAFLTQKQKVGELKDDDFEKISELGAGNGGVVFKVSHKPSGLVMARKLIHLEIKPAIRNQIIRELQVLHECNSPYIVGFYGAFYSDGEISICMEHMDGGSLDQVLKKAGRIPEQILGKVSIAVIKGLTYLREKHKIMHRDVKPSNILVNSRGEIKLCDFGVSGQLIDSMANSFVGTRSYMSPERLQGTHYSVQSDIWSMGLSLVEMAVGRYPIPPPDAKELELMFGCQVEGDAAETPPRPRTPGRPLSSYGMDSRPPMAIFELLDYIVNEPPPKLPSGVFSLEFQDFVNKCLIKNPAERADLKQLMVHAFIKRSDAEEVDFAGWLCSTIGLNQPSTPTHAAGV
Sequence of Glycogen synthase kinase-3 beta (P49841 whole entry, canonical isoform): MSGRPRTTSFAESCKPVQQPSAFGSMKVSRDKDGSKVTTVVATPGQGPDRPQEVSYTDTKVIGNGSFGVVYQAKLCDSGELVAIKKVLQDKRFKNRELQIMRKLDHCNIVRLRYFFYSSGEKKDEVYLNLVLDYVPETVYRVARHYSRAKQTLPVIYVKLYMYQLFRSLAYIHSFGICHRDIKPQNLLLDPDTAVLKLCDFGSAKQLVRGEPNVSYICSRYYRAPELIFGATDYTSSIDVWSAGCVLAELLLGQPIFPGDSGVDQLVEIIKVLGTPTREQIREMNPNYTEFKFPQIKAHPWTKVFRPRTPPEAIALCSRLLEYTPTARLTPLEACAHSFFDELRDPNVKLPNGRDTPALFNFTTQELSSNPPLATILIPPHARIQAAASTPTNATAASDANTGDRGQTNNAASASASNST
Sequence of Serine/threonine-protein kinase B-raf (Homo sapiens) (P15056 whole entry): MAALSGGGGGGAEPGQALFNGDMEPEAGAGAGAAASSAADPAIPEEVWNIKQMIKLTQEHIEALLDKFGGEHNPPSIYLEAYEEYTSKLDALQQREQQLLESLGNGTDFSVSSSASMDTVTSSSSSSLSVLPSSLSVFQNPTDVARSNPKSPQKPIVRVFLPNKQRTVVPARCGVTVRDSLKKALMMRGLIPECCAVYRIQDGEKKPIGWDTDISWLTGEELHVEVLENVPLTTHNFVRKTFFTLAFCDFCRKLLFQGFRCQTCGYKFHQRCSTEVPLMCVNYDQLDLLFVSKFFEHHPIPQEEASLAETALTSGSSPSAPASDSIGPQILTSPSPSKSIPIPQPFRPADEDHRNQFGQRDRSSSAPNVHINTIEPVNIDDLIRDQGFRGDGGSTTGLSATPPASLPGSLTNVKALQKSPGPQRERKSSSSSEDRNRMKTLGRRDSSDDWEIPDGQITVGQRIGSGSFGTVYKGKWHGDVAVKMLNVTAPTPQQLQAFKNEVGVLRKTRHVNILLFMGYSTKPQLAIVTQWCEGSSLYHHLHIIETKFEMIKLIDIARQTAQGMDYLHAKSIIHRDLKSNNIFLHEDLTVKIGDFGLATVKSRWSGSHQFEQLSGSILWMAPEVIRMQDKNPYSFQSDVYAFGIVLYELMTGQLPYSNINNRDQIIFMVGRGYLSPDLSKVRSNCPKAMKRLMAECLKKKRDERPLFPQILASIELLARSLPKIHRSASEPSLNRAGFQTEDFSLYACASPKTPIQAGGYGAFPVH

| Structure (SMILES) | inhibition [1] [%] | pIC50 (HL-60) | pIC50 [2] | pIC50 [3] | Activity [4] | inhibition [5] [%] | inhibition (HUVEC) [%] | inhibition [6] [%] |
| --- | --- | --- | --- | --- | --- | --- | --- | --- |
| N=C(N)Nc1cccc(Cc2ccc(NC(=N)Nc3ccc(Cl)c(C(F)(F)F)c3)cc2)c1 | 99 | 4.80 | < 4.00 | < 4.00 | inactive | -7 | 17 | 17 |
| N=C(N)Nc1cccc(Cc2ccc(NC(=N)Nc3ccccc3)cc2)c1 | – | < 4.00 | < 4.00 | < 4.00 | – | – | – | – |
| N=C(N)Nc1ccc(C(=O)c2cccc(NC(=N)N)c2)cc1 | – | 3.85 | < 4.00 | < 4.00 | – | – | – | – |
| N=C(N)Nc1cccc(Oc2ccc(NC(=N)Nc3ccccc3)cc2)c1 | 4 | < 4.00 | < 4.00 | < 4.00 | – | 1 | -1 | – |
| N=C(N)Nc1cccc(C(=O)c2ccc(NC(=N)Nc3ccc(Cl)c(C(F)(F)F)c3)cc2)c1 | 96 | 4.65 | < 4.00 | < 4.00 | inactive | 20 | 0 | 21 |
| N=C(N)Nc1ccc(Cc2cccc(NC(=N)N)c2)cc1 | – | 4.45 | < 4.00 | < 4.00 | – | – | – | – |
| N=C(N)Nc1ccc(Oc2ccc(NC(=N)N)cc2)cc1 | 2 | 4.05 | < 4.00 | < 4.00 | – | -1 | 7 | 6 |
| O=C(c1ccc(NC2=NCCN2)cc1)c1cccc(NC2=NCCN2)c1 | – | < 4.00 | < 4.00 | < 4.00 | – | – | – | – |
| N=C(N)Nc1ccc(Nc2cccc(NC(=N)N)c2)cc1 | 86 | 4.17 | < 4.00 | < 4.00 | – | 4 | -6 | – |
| CC(=O)Nc1cccc(Nc2ccc(NC(=N)Nc3ccc(Cl)c(C(F)(F)F)c3)cc2)c1 | 38 | 5.40 | < 4.00 | < 4.00 | inactive | 12 | 1 | 12 |
| c1cc(Cc2ccc(NC3=NCCN3)cc2)cc(NC2=NCCN2)c1 | – | < 4.00 | < 4.00 | < 4.00 | – | – | – | – |
| N=C(N)Nc1ccc(Cc2cccc(NC(=N)Nc3ccccc3)c2)cc1 | – | < 4.00 | < 4.00 | < 4.00 | – | – | – | – |
| CC(=O)Nc1cccc(Oc2ccc(NC(=N)Nc3ccc(Cl)c(C(F)(F)F)c3)cc2)c1 | 35 | 5.04 | < 4.00 | < 4.00 | inactive | 0 | – | 8 |
| N=C(N)Nc1cccc(Oc2ccc(NC(=N)Nc3ccc(Cl)c(C(F)(F)F)c3)cc2)c1 | 96 | 4.61 | < 4.00 | < 4.00 | inactive | 21 | 0 | -7 |
| N=C(N)Nc1ccc(Cc2cccc(NC(=N)Nc3ccc(Cl)c(C(F)(F)F)c3)c2)cc1 | – | 4.78 | < 4.00 | < 4.00 | inactive | – | – | – |
| N=C(N)Nc1cccc(Nc2ccc(NC(=N)Nc3ccccc3)cc2)c1 | – | < 4.00 | < 4.00 | < 4.00 | – | – | – | – |
| N=C(N)Nc1cccc(Nc2ccc(NC(=N)Nc3ccc(Cl)c(C(F)(F)F)c3)cc2)c1 | 74 | 4.44 | < 4.00 | < 4.00 | inactive | 12 | -3 | – |
| N=C(N)Nc1cccc(C(=O)c2ccc(NC(=N)Nc3ccccc3)cc2)c1 | – | < 4.00 | < 4.00 | < 4.00 | – | – | – | – |
| N=C(N)Nc1ccc(Oc2cccc(NC(=N)Nc3ccccc3)c2)cc1 | – | < 4.00 | < 4.00 | < 4.00 | – | – | – | – |
| N=C(N)Nc1ccc(Oc2cccc(NC(=N)N)c2)cc1 | 22 | 4.44 | < 4.00 | < 4.00 | – | -1 | -1 | -4 |
| c1cc(NC2=NCCN2)cc(Oc2ccc(NC3=NCCN3)cc2)c1 | – | < 4.00 | < 4.00 | < 4.00 | – | – | – | – |
| CNC(=O)c1cc(Oc2ccc(NC(=O)Nc3ccc(Cl)c(C(F)(F)F)c3)cc2)ccn1 [SORAFENIB] | – | 5.77 | – | – | – | – | – | – |
